# According to US20090203716A1, “Pyrimidine low molecular weight ligands for modulating hormone receptors” (The Government of the United States of America as …, priority 2006, published 2009):
# Tests used:
# [1] = molecular target: LHCG receptor (Mus musculus, UniProt P30730); details: ovulation induction model; cited from earlier work
# [2] = tested on: TSHR mutant M9; experiment: cAMP production in HEK-EM 293 cells transiently expressing TSHR mutant M9; assay type: cell-based, human
# Protocol: HEK-EM 293 cells were grown in Dulbecco's modified Eagle's Medium (DMEM) supplemented with 10% fetal bovine serum, 100 units/ml penicillin and 10 μg/ml streptomycin (Life Technologies Inc.) at 37° C. in a humidified 5% CO2 incubator. Cells were transiently transfected with wild type TSHR and mutant receptors in 24-well plates (7.5×10^4 cells per well) with 0.4 μg DNA/well using FuGENE™ 6 reagent (Roche) according to the manufacturer's protocol.
# The M9 mutant is described in Jaschke et al., J Biol Chem 281:9841-9844. The Y7.42A mutant was introduced into hTSHR-pcDNA3.1 via the QuickChange XL Site-Directed Mutagenesis kit (Stratagene). The construct was verified by sequencing (MWG Biotech).
# Transiently transfected cells were cultured for 48 hours before the cAMP assay. HEK-EM 293 cells stably expressing TSHR, LHCGR or FSHR were seeded into 24-well plates with a density of 2.2×10^5 cells/well 24 hours before the cAMP assay. […] The intracellular cAMP content was determined with the cAMP Biotrak Enzymeimmunoassay (EIA) System (GE Healthcare). Data were analyzed using GraphPad Prism 4 for Windows. Receptor expression was measured as described in Jaschke et al., J Biol Chem 281:9841-9844.
# [3] = molecular target: T1, TSHR (Homo sapiens, UniProt P16473); experiment: inhibition of TSH-mediated cAMP response in HEK-EM 293 cells stably expressing TSHR; assay type: cell-based; design: expressed in transfected cells
# Protocol: (§1) Transiently transfected cells were cultured for 48 hours before the cAMP assay. HEK-EM 293 cells stably expressing TSHR, LHCGR or FSHR were seeded into 24-well plates with a density of 2.2×10^5 cells/well 24 hours before the cAMP assay. After removal of growth medium, cells were incubated for 1 hour in HBSS (Cellgro) with 10 mM HEPES (Cellgro) containing 1 mM 3-isobutyl-1-methylxanthine (IBMX) (Sigma) and the ligand of interest in a humidified 5% CO2 incubator at 37° C. The intracellular cAMP content was determined with the cAMP Biotrak Enzymeimmunoassay (EIA) System (GE Healthcare). Data were analyzed using GraphPad Prism 4 for Windows. Receptor expression was measured as described in Jaschke et al., J Biol Chem 281:9841-9844.
# The TSH-mediated cAMP response of TSHR was inhibited by a maximum of 70.8±5.5% at 30 μM compound 52. […] Compound 52 has no activity at FSHR.
# To exclude the possibility that compound 52 might be acting independently of TSHR by building aggregates with TSH, thereby inhibiting the TSH-induced response, tests were conducted for a possible aggregation between these two ligands. Compound 52 and TSH were preincubated for up to 15 minutes before addition to HEK-EM 293 cells stably expressing TSHR. […] There was no difference in the antagonistic effect whether TSH and compound 52 were preincubated together or not (data not shown) thereby excluding the possibility that its effect was caused by aggregation with TSH.
# [4] = molecular target: T2, human LHCG receptor (Homo sapiens, UniProt P22888); experiment: intracellular cAMP accumulation, agonism at LHCGR stably expressed in HEK EM 293 cells; assay type: cell-based
# T2 construct: expressed in transfected cells
# Protocol: (§2) With reference to Table 1, exemplary disclosed compounds were evaluated against human TSH receptor and human LHCG receptor that were stably expressed in HEK 293 EM cells as previously described by Libert et al. (Biochem. Biophys. Res. Commun. 1989, 165, 1250-1255); and by Schulz et al. (Mol. Endocrinol. 1999, 13, 181-190). Cell surface expression of TSH receptor and LHCG receptor were determined via FACS analysis (Kleinau, G.; Jäschke, H.; Neumann, S.; Lättig, S.; Paschke, R.; Krause, G. J. Biol. Chem. 2004, 279, 51590-51600).
# Following aspiration of the medium after incubation with compounds, cells were lysed using lysis buffer 1 of the cAMP Biotrak Enzymeimmunoassay (EIA) System (Amersham Biosciences). The cAMP content of the cell lysate was determined using the manufacturer's protocol. […] The potency (EC50) was obtained from dose response curves (0-100 μM compound) by data analysis with GraphPad Prism 4 for Windows. […] The data are presented as mean±SEM of two independent experiments, each performed in duplicate.
# as §1
# [5] = molecular target: T3, human TSH receptor (Homo sapiens, UniProt P16473); experiment: intracellular cAMP accumulation, agonism at TSHR stably expressed in HEK EM 293 cells; assay type: cell-based
# T3 construct: expressed in transfected cells
# Protocol: as §2, with “51590-51600). Agonism of compounds 3-20 were determined via measurement of intracellular cyclic AMP accumulation. […] For example, […] certain compounds disclosed herein exerted no discernible effect on the FSH receptor.” for “51590-51600).”
# Cells were cultured for 48 h in 24-well plates before incubation for 1 h in serum-free DMEM containing 1 mM 3-isobutyl-1-methylxanthine (IBMX) (SIGMA) and bovine TSH (1.8 μM) (SIGMA) or human LH (1000 ng/ml) (Dr. A. Parlow, NIDDK National Hormone and Pituitary Program) or compounds 3-19 (0-100 μM) in a humidified 5% CO2 incubator. Following aspiration of the medium after incubation with compounds, cells were lysed using lysis buffer 1 of the cAMP Biotrak Enzymeimmunoassay (EIA) System (Amersham Biosciences). The cAMP content of the cell lysate was determined using the manufacturer's protocol. The efficacy of receptor activation by small molecule modulators is expressed as % of maximum response of LHCG receptor or TSH receptor to LH or TSH, respectively. The potency (EC50) was obtained from dose response curves (0-100 μM compound) by data analysis with GraphPad Prism 4 for Windows. With reference to FIG. 1, intracellular cAMP production was determined in response to 100 μM of each compound and is expressed as % of maximum response of TSHR/LHCGR to TSH (100 mU/ml)/LH (1000 ng/ml). The data are presented as mean±SEM of two independent experiments, each performed in duplicate.
# as §1
# [6] = molecular target: T1, TSHR; experiment: TsAb (Graves' disease sera)-stimulated cAMP accumulation in HEK-EM 293 cells expressing TSHR; assay type: cell-based; design: expressed in transfected cells
# Protocol: as §1
# To assess the therapeutic potential of compound 52 in patients with Graves' disease, its ability to inhibit TSHR activation by TsAbs was tested. First, four patient sera (GD 5, 19, 29, 30) were used at a dilution of 1:50 to test the effect of compound 52 on TsAb-stimulated cAMP accumulation in HEK-EM 293 cells expressing TSHR. All four sera increased cAMP accumulation, but to different extents (FIG. 6). To assess inhibition, cAMP accumulation was measured in response to TsAbs in the presence of 30 μM compound 52. Indeed, compound 52 reduced TsAb-mediated responses of the different sera (set at 100% for each patient's serum) by 28% to 79% (FIG. 6).
# T1 sequence (P16473 21-764): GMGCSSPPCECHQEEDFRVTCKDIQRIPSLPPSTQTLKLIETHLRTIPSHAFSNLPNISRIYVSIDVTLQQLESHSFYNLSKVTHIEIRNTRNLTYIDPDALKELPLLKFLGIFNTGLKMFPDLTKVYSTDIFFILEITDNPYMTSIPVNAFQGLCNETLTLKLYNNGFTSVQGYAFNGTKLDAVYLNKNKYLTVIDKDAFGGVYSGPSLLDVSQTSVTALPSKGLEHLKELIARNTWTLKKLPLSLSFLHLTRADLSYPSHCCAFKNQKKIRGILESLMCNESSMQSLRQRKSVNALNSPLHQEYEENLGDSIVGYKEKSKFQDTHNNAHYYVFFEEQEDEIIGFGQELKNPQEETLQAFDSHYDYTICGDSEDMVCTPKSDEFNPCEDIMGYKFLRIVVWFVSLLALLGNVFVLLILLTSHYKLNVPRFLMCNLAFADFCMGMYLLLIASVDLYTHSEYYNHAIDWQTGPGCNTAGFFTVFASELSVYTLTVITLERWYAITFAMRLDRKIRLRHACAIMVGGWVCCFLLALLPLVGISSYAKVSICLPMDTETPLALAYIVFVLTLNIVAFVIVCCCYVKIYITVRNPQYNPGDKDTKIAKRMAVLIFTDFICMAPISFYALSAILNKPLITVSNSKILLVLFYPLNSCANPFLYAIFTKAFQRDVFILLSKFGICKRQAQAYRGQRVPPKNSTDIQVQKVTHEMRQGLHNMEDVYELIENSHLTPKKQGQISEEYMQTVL
# T3 sequence (P16473 21-764): as above
# T2 sequence (P22888 27-699): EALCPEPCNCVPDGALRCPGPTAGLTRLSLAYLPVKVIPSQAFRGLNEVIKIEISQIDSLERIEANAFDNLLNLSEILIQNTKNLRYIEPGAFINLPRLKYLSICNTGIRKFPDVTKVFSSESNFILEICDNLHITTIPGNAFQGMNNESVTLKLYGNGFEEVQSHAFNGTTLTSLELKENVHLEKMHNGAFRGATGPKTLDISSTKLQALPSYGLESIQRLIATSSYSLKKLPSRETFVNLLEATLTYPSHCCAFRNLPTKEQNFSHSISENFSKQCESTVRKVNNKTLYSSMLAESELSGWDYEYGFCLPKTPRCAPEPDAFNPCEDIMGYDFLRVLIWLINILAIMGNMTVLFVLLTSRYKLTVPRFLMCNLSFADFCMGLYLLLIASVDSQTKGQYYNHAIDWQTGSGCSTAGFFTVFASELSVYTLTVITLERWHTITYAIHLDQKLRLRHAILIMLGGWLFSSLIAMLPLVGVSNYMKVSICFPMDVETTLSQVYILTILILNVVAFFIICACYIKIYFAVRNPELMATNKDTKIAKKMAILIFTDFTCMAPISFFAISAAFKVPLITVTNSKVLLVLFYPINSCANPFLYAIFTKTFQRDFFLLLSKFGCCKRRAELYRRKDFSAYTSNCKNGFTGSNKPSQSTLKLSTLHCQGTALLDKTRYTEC
# Chain of LHCG receptor (P30730 27-700): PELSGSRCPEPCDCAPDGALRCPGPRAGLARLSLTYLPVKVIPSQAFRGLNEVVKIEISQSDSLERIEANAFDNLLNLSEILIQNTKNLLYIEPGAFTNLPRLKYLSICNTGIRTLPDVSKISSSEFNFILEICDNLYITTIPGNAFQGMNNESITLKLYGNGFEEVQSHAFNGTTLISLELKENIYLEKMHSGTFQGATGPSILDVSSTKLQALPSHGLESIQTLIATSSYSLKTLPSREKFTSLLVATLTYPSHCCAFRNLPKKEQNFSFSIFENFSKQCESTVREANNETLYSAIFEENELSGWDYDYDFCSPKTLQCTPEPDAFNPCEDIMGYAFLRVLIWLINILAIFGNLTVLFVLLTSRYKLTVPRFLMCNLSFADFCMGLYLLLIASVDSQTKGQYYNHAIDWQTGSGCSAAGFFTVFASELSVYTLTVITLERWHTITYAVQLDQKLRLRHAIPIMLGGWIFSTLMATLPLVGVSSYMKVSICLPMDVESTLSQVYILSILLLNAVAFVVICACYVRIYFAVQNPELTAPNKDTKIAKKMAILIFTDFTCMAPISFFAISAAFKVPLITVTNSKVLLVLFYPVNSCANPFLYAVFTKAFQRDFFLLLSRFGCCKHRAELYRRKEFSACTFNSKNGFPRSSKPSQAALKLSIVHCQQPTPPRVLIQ
smiles,measurement,setting,value
"COc1cccc(-c2nc(SC)nc3sc(C(=O)NC(C)(C)C)c(N)c23)c1 [Compound 3, N-tert-butyl-5-amino-4-(3-methoxyphenyl)-2-(methylthio)thieno[2,3-d]pyrimidine-6-carboxamide, reference compound]",in vivo efficacy for LHCG receptor,[1],demonstrated
same,agonism at M9,[2],full agonist
same,inhibition of TSH stimulation of TSH receptor signaling,[3],35%
same,IC50,[3]; with EC50 dose of TSH,11 µM
same,% Max. Resp. @ LHCGR in μM,[4]; % of maximum response of LHCGR to LH (1000 ng/ml),45.8 ± 5.9%
same,EC50,"[4]; read-out: EC50 (LHCGR) in μM [95% C.I.], cAMP, HEK EM 293 cells, dose response 0-100 μM compound",0.3 µM
same,"partial agonism, % of TSH activity at TSHR",[5],23%
same,% Max. Resp. @ TSHR in μM,"[5]; % of maximum response of TSHR to TSH (100 mU/ml), * estimated maximum response at 100 μM compound",23.4 ± 3.6%
same,agonist activity at TSHR,[5]; cAMP,partial agonist
same,EC50,"[5]; read-out: EC50 (TSHR) in μm [95% C.I.], cAMP, HEK EM 293 cells, dose response 0-100 μM compound, ** estimated EC50, no plateau",6.5 µM
"CC/C=C/c1ccc(-c2nc(SC)nc3sc(C(=O)NC(C)(C)C)c(N)c23)cc1 [N-tert-butyl-5-amino-4-(4-((E)-but-1-enyl)phenyl)-2-(methylthio)thieno[2,3-d]pyrimidine-6-carboxamide]",inhibition of TSH receptor activation by antibodies (IgG) from Graves' disease sera,[6],inhibit
